What was measured:
[1] = tested on: A549; assay: Relative drug sensitivity in NSCLC cell lines, BrdU Cell Proliferation ELISA; type: cell-based, human; conditions: A549 cell line, EGFR+
Method: (§1) The NSCLC cell lines were grown using standard cell culture conditions: DMEM supplemented to contain 10% fetal bovine serum, 100 IU/ml penicillin, […] streptomycin and 2 mM L-glutamine (all from Invitrogen Life Technologies, Carlsbad, Calif.). […] Cytotoxicity was assessed in cells by BrdU Cell Proliferation calorimetric ELISA (Roche Applied Science, Indianapolis, Ind.). This is a calorimetric immunoassay for the quantification of cell proliferation based on the measurement of BrdU incorporation during DNA synthesis. To carry out the assays, the NSCLC cells were plated at 2500-5000 cells/well in 96 well microtiter plates and 24 hours later diluted monoclonal antibody drug was added. […] The cells were incubated at 37° C. for 48 hours at which time the BrdU labeling reagent was added. After two hours the labeling medium was removed and cells were fixed and the DNA was denatured using a FixDenat solution. The anti-BrdU antibody conjugated with peroxidase was added and immune complexes were detected by the subsequent substrate reaction. The reaction product was quantified by measuring the absorbance of the samples in an ELISA reader at […]. The greater the absorbency, the greater the number of live cells. […] Three to six independent BrdU assays were performed for each cell line.

[2] = tested on: H226; assay: as above; type: cell-based, human; conditions: H226 cell line, EGFR+
Method: as §1

[3] = tested on: L2987; assay: as above; type: cell-based, human; conditions: L2987 cell line
Method: as §1

[4] = tested on: H522; assay: as above; type: cell-based, human; conditions: H522 cell line, EGFR negative
Method: as §1

[5] = tested on: LX1; assay: as above; type: cell-based, human; conditions: LX1 (LX-1) cell line, EGFR negative
Method: as §1

[6] = tested on: ChagoK1; assay: as above; type: cell-based, human; conditions: ChagoK1 cell line
Method: as §1

[7] = tested on: L2987 lung xenograft; assay: In vivo antitumor testing, lung xenograft model; conditions: nude mice
Method: (§2) Tumors were propagated in nude mice as subcutaneous (sc) transplants using tumor fragments obtained from donor mice. Tumor passage occurred approximately every two to four weeks. Tumors were then allowed to grow to the pre-determined size window (usually between 100-200 mg, tumors outside the range were excluded) and animals were evenly distributed to various treatment and control groups. […] Treated animals were checked daily for treatment related toxicity/mortality. Each group of animals was weighed before the initiation of treatment (Wt1) and then again following the last treatment dose (Wt2). The difference in body weight (Wt2-Wt1) provided a measure of treatment-related toxicity. Tumor response was determined by measurement of tumors with a caliper twice a week, until the tumors reached a predetermined target size of 1 gm or became necrotic. Tumor weights (mg) were estimated from the formula: Tumor weight=(length×width^2)/2 Antitumor activity was determined in terms of primary tumor growth inhibition. This was determined in two ways: (i) calculating the relative median tumor weight (MTW) of treated (T) and control (C) mice at various time points (effects were expressed as % T/C); and (ii) calculating the tumor growth delay (T-C value), defined as the difference in time (days) required for the treated tumors (T) to reach a predetermined target size compared to those of the control group (C). Statistical evaluations of data were performed using Gehan's generalized Wilcoxon test for comparisons of time to reach tumor target size (Gehan 1965). Statistical significance was declared at p<0.05. Antitumor activity was defined as a continuous MTW % T/C≦50% for at least 1 tumor volume doubling time (TVDT) any time after the start of treatment, where TVDT (tumor volume doubling time)=median time (days) for control tumors to reach target size−median time (days) for control tumors to reach half the target size.
(§3) Treated animals were checked daily for treatment related toxicity/mortality.

[8] = tested on: A549 lung xenograft; assay: In vivo antitumor testing, lung xenograft model; conditions: nude mice
Method: as §2, §3

[9] = tested on: LX1 lung xenograft; assay: In vivo antitumor testing, lung xenograft model; conditions: nude mice
Method: as §2, §3

Compound: COc1cc2ncnc(Nc3ccc(F)c(Cl)c3)c2cc1OCCCN1CCOCC1 [gefitinib]
- resistance/sensitivity classification [1]: resistant
- resistance/sensitivity classification [2]: resistant
- resistance/sensitivity classification [3]: resistant
- resistance/sensitivity classification [4]: resistant
- resistance/sensitivity classification [5]: resistant
- resistance/sensitivity classification [6]: sensitive
- sensitivity of lung xenograft model [7]: sensitive
- sensitivity of lung xenograft model [8]: borderline sensitive
- sensitivity of lung xenograft model [9]: resistant

From patent publication US20070259375A1, “Biomarkers and Methods for Determining Sensitivity to Epidermal Growth Factor Receptor Modulators in Non-Small Cell Lung Cancer” (Bristol-Myers Squibb Company, priority 2004, published 2007)
